≈ marks a conversion by molar mass, not a printed value. Calls of active or inactive are those of the source. The calls are words filed in the database; no cut-off is given here.
How the values were obtained:
Candida albicans [1] = experiment: Antifungal activity against Candida albicans SC5314 assessed as inhibition of fungal growth by CLSI M27-A3 guidelines based method; type: functional
Candida albicans [2] = experiment: Antifungal activity against Candida albicans GIM 2.194 assessed as inhibition of fungal growth by CLSI M27-A3 guidelines based method; type: functional
Candida tropicalis = experiment: Antifungal activity against Candida tropicalis GIM 2.183 assessed as inhibition of fungal growth by CLSI M27-A3 guidelines based method; type: functional
Candida parapsilosis = experiment: Antifungal activity against Candida parapsilosis GIM 2.190 assessed as inhibition of fungal growth by CLSI M27-A3 guidelines based method; type: functional; details: Lodderomyces parapsilosis
Nakaseomyces glabratus = experiment: Antifungal activity against Candida glabrata assessed as inhibition of fungal growth by CLSI M27-A3 guidelines based method; type: functional
Pichia kudriavzevii = experiment: Antifungal activity against Candida krusei GIM 2.1 assessed as inhibition of fungal growth by CLSI M27-A3 guidelines based method; type: functional
Candida albicans [3] = experiment: Antifungal activity against fluconazole and iodiconazole resistant Candida albicans clinical isolate 17# assessed as inhibition of fungal growth by CLSI M27-A3 guidelines based method; type: functional
Candida albicans [4] = experiment: Antifungal activity against fluconazole-resistant Candida albicans CaR assessed as inhibition of fungal growth by CLSI M27-A3 guidelines based method; type: functional
Candida albicans [5] = experiment: Antifungal activity against fluconazole-resistant Candida albicans clinical isolate 901 assessed as inhibition of fungal growth by CLSI M27-A3 guidelines based method; type: functional
Candida albicans [6] = experiment: Antifungal activity against fluconazole-resistant Candida albicans clinical isolate 904 assessed as inhibition of fungal growth by CLSI M27-A3 guidelines based method; type: functional
Candida albicans [7] = experiment: Antifungal activity against fluconazole-resistant Candida albicans clinical isolate 632 assessed as inhibition of fungal growth by CLSI M27-A3 guidelines based method; type: functional
Candida albicans [8] = experiment: Antifungal activity against fluconazole-resistant Candida albicans clinical isolate 100 assessed as inhibition of fungal growth by CLSI M27-A3 guidelines based method; type: functional
Candida albicans [9] = experiment: Antifungal activity against fluconazole-resistant Candida albicans clinical isolate 103 assessed as inhibition of fungal growth by CLSI M27-A3 guidelines based method; type: functional
Candida albicans [10] = experiment: Antifungal activity against fluconazole-resistant Candida albicans clinical isolate 311 assessed as inhibition of fungal growth by CLSI M27-A3 guidelines based method; type: functional
Candida albicans [11] = experiment: Fungicidal activity against Candida albicans SC5314 incubated for 48 hrs by SDA plate based method; type: functional
Candida albicans [12] = experiment: Selectivity ratio of MFC for fungicidal activity against Candida albicans SC5314 to MIC80 for antifungal activity against Candida albicans SC5314; type: functional
Candida albicans [13] = experiment: Fungicidal activity against fluconazole and iodiconazole resistant Candida albicans clinical isolate 17# incubated for 48 hrs by SDA plate based method; type: functional
Candida albicans [14] = experiment: Selectivity ratio of MFC for fungicidal activity against fluconazole and iodiconazole resistant Candida albicans clinical isolate 17# to MIC80 for antifungal activity against fluconazole and iodiconazole resistant Candida albicans clinical isolate 17#; type: functional
Candida albicans [15] = experiment: Effect on sterol composition in Candida albicans SC5314 assessed as ergosterol content at 0.0625 microg/ml measured after 16 hrs by GC-MS analysis (reference value: 96.96 %); type: functional; details: dose 0.0625 µg/ml
Candida albicans [16] = experiment: Effect on sterol composition in Candida albicans SC5314 assessed as 14alpha-demethyllanosterol content at 0.0625 microg/ml measured after 16 hrs by GC-MS analysis (reference value: 1.98 %); type: functional; details: dose 0.0625 µg/ml
Candida albicans [17] = experiment: Effect on sterol composition in Candida albicans SC5314 assessed as obtusifoliol content at 0.0625 microg/ml measured after 16 hrs by GC-MS analysis relative to control; type: functional; details: dose 0.0625 µg/ml
Candida albicans [18] = experiment: Effect on sterol composition in Candida albicans SC5314 assessed as lanosterol content at 0.0625 microg/ml measured after 16 hrs by GC-MS analysis relative to control; type: functional; details: dose 0.0625 µg/ml
Candida albicans [19] = experiment: Effect on sterol composition in Candida albicans SC5314 assessed as eburicol content at 0.0625 microg/ml measured after 16 hrs by GC-MS analysis relative to control; type: functional; details: dose 0.0625 µg/ml
Candida albicans [20] = experiment: Effect on sterol composition in Candida albicans SC5314 assessed as other sterols content at 0.0625 microg/ml measured after 16 hrs by GC-MS analysis (reference value: 1.06 %); type: functional; details: dose 0.0625 µg/ml
Candida albicans [21] = experiment: Antibiofilm activity against fluconazole-resistant Candida albicans CPCC400616 assessed as inhibition of metabolic activity of biofilm measured after 6 hrs by XTT reduction assay; type: functional
Candida albicans [22] = experiment: Antibiofilm activity against fluconazole-resistant Candida albicans CPCC400616 assessed as inhibition of metabolic activity of biofilm measured after 24 hrs by XTT reduction assay; type: functional
Candida albicans [23] = experiment: Antibiofilm activity against fluconazole-resistant Candida albicans CPCC400616 assessed as inhibition of metabolic activity of biofilm measured after 48 hrs by XTT reduction assay; type: functional
[24] = Cytotoxicity against HEK293T cells assessed as inhibition of cell growth incubated for 72 hrs by MTT assay; type: toxicity, cell-based, HEK-293T; details: human
[25] = Cytotoxicity against human NCI-H460 cells assessed as inhibition of cell growth incubated for 72 hrs by MTT assay; type: toxicity, cell-based
[26] = Cytotoxicity against human OVCAR-3 cells assessed as inhibition of cell growth incubated for 72 hrs by MTT assay; type: toxicity, cell-based
[27] = Cytotoxicity against HUVEC cells assessed as inhibition of cell growth incubated for 72 hrs by MTT assay; type: toxicity, cell-based; details: human
[28] = Selectivity index, ratio of IC50 for HEK293T cells to MIC80 for Candida albicans SC5314; type: toxicity, cell-based; details: human, HEK293T cells versus Candida albicans SC5314; read-out: Selectivity Index
[29] = Half-life in Sprague-Dawley rat at 10 mg/kg, po by LC-MS/MS analysis; type: ADME, organism-based; details: in vivo
[30] = Tmax in Sprague-Dawley rat at 10 mg/kg, po by LC-MS/MS analysis; type: ADME, organism-based; details: in vivo
[31] = Cmax in Sprague-Dawley rat at 10 mg/kg, po by LC-MS/MS analysis; type: ADME, organism-based; details: in vivo
[32] = AUC (0 to t) in Sprague-Dawley rat at 10 mg/kg, po by LC-MS/MS analysis; type: ADME, organism-based; details: in vivo
[33] = MRT (0 to t) in Sprague-Dawley rat at 10 mg/kg, po by LC-MS/MS analysis; type: ADME, organism-based; details: in vivo
[34] = Oral bioavailability in Sprague-Dawley rat at 10 mg/kg by LC-MS/MS analysis; type: ADME, organism-based; details: in vivo
[35] = Half-life in Sprague-Dawley rat at 3 mg/kg, iv by LC-MS/MS analysis; type: ADME, organism-based; details: in vivo
[36] = Tmax in Sprague-Dawley rat at 3 mg/kg, iv by LC-MS/MS analysis; type: ADME, organism-based; details: in vivo
[37] = Cmax in Sprague-Dawley rat at 3 mg/kg, iv by LC-MS/MS analysis; type: ADME, organism-based; details: in vivo
[38] = AUC (0 to t) in Sprague-Dawley rat at 3 mg/kg, iv by LC-MS/MS analysis; type: ADME, organism-based; details: in vivo
[39] = MRT(0 to t) in Sprague-Dawley rat at 3 mg/kg, iv by LC-MS/MS analysis; type: ADME, organism-based; details: in vivo
[40] = Apparent volume of distribution in Sprague-Dawley rat at 3 mg/kg, iv by LC-MS/MS analysis; type: ADME, organism-based; details: in vivo
Candida albicans [41] = experiment: Fungicidal activity fluconazole and iodiconazole resistant Candida albicans clinical isolate 17# assessed as reduction in viable colony count at 0.5 microg/ml measured within 24 hrs by time-kill kinetics assay; type: functional, organism-based; details: dose 0.5 µg/ml
Candida albicans [42] = experiment: Fungicidal activity fluconazole and iodiconazole resistant Candida albicans clinical isolate 17# assessed as reduction in viable colony count measured for 24 hrs by time-kill kinetics assay; type: functional, organism-based
Candida albicans [43] = experiment: Antibiofilm activity against Candida albicans CPCC400616 assessed as inhibition of morphological transformation by measuring disappearance of mycelium at 2 microg/ml incubated for 4 hrs by microscopic photograph analysis; type: functional, organism-based; details: dose 2.0 µg/ml

CN(Cc1ccc(N2CCN(Cc3ccc(F)cc3Br)CC2)cc1)CC(O)(Cn1cncn1)c1ccc(F)cc1F (configuration not stated) gave an MIC80 (Candida albicans [1]) of 0.006 µg/mL (≈ 0.00953 µM), an MIC80 (Candida albicans [2]) of 0.013 µg/mL (≈ 0.0207 µM) and an MIC80 (Candida tropicalis) of 0.006 µg/mL (≈ 0.00953 µM). For the same compound, the MIC80 (Candida parapsilosis) was 0.006 µg/mL (≈ 0.00953 µM), the MIC80 (Nakaseomyces glabratus) was 0.1 µg/mL (≈ 0.159 µM) and the MIC80 (Pichia kudriavzevii) was 0.1 µg/mL (≈ 0.159 µM). The MIC80 (Candida albicans [3]) was 0.063 µg/mL (≈ 0.1 µM), the MIC80 (Candida albicans [4]) was 0.063 µg/mL (≈ 0.1 µM) and the MIC80 (Candida albicans [5]) was > 64 µg/mL. It also gave an MIC80 (Candida albicans [6]) of 8 µg/mL (≈ 12.7 µM), an MIC80 (Candida albicans [7]) of 8 µg/mL (≈ 12.7 µM) and an MIC80 (Candida albicans [8]) of 2 µg/mL (≈ 3.18 µM). For the same compound, the MIC80 (Candida albicans [9]) was 4 µg/mL (≈ 6.35 µM), the MIC80 (Candida albicans [10]) was 8 µg/mL (≈ 12.7 µM) and the MFC (Candida albicans [11]) was 0.031 µg/mL (≈ 0.0492 µM). For the same compound, the Selectivity ratio (Candida albicans [12]) was 5, the MFC (Candida albicans [13]) was 0.063 µg/mL (≈ 0.1 µM) and the Selectivity ratio (Candida albicans [14]) was 1. It also gave an Activity (Candida albicans [15]) of 1.83%, an Activity (Candida albicans [16]) of 2.78% and an Activity (Candida albicans [17]) of 14.81%. The Activity (Candida albicans [18]) was 10.55%, the Activity (Candida albicans [19]) was 65.56% and the Activity (Candida albicans [20]) was 4.47%. It also gave an MIC50 (Candida albicans [21]) of 0.5 µg/mL (≈ 0.794 µM), an MIC50 (Candida albicans [22]) of 2 µg/mL (≈ 3.18 µM) and an MIC50 (Candida albicans [23]) of 8 µg/mL (≈ 12.7 µM). For the same compound, the IC50 at 72 h [24] was 4.99 µM, the IC50 at 72 h [25] was 5.22 µM and the IC50 at 72 h [26] was 7.72 µM. The IC50 at 72 h [27] was > 10 µM, the Selectivity ratio [28] was 798 and the half-life [29] was 1.12 h. The Tmax [30] was 1 h, the Cmax [31] was 10.6 ng/mL and the AUC(0-t) [32] was 14.4 ng·h/mL. For the same compound, the MRT last [33] was 1.12 h, the bioavailability [34] was 1.66% and the t1/2 [35] was 0.37 h. The Tmax [36] was 4.98 min, the Cmax [37] was 535 ng/mL and the AUCt [38] was 324 ng·h/mL. For the same compound, the MRT last [39] was 0.478 h, the Vz [40] was 4.89 L/kg and the Activity (Candida albicans [41]) was “Active”. The Activity (Candida albicans [42]) was “Dose-dependent-effect; Much More Effective Than Iodiconazole” and the Activity (Candida albicans [43]) was “Active”.
